# Assay results taken from patent US20060293291A1, “2-Propylidene-19-nor-vitamin d compounds” (priority 2003, published 2006).
# Tests used:
# [1] = target: T1, recombinantly produced rat receptor (1α,25-dihydroxyvitamin D receptor) (Rattus norvegicus, UniProt P13053); test: Competitive VDR binding; conditions: FIGS. 1 and 2
# T1 construct: made in house
# T1 sequence (P13053 1-423): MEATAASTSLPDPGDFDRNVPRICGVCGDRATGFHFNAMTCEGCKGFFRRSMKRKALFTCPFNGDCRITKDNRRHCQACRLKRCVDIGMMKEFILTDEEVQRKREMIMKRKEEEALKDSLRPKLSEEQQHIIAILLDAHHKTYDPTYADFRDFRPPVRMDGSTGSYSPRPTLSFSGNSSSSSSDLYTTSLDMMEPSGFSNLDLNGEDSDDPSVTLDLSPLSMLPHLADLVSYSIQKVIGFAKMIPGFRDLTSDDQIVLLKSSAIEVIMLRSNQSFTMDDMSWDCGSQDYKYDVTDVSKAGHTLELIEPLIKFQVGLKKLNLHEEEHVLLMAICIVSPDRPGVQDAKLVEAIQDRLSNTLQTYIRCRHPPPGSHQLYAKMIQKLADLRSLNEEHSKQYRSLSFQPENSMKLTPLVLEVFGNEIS
# Method: FIGS. 1 and 2—Competitive VDR Binding
# Competitive binding of the analogs to the porcine intestinal receptor was carried out by the method described by Dame et al (Biochemistry 25, 4523-4534, 1986), except the recombinantly produced rat receptor was used as the receptor (see Vanhooke et al., Biochemistry, in press, 2004).
# [2] = system: human leukemia cells (HL-60 cells); test: HL-60 cell differentiation (NBT reduction); type: cell-based; conditions: NBT assay; for potency in promoting the differentiation of leukemia cells: HL-60 cells to monocytes, FIG. 3; for percent of HL-60 cells induced to differentiate: concentration 1×10^−7 M
# Method: FIG. 3—EL-60 Cell Differentiation
# The differentiation of HL-60 promyelocytic into monocytes was determined as described by Ostrem et al (J. Biol. Chem. 262, 14164-14171, 1987).
# Differentiation activity was assessed by a standard differentiation assay, abbreviated as NBT reduction (nitroblue tetrazolium reduction). The assay was conducted according to known procedures, as given, for example, by DeLuca et al U.S. Pat. No. 4,717,721 and Ostrem et al, J. Biol. Chem. 262, 14164, 1987. For the assay, the differentiation activity of the test compounds is expressed in terms of the percent of HL-60 cells having differentiated to normal cells in response to a given concentration of test compound.
# [3] = system: 24-hydroxylase (24OHase) gene promoter; test: Transcription activation, 24-hydroxylase promoter luciferase reporter in ROS 17/2.8 (bone) cells; type: cell-based; conditions: ROS 17/2.8 cells, luciferase 16 hours after dosing, FIG. 4
# Method: FIG. 4—Transcription Activation
# Transcriptional activity was measured in ROS 17/2.8 (bone) cells that were stably transfected with a 24-hydroxylase (24OHase) gene promoter upstream of a luciferase reporter gene (Arbour et al., 1998). Cells were given a range of doses. Sixteen hours after dosing the cells were harvested and luciferase activities were measured using a luminometer.
# “RLU” in FIG. 4 refers to relative luciferase units.
# [4] = system: intestinal calcium transport; test: Intestinal calcium transport, everted gut sac method; type: in vivo, Sprague-Dawley rats; conditions: rats, four consecutive ip doses, FIG. 5
# Method: (§1) FIGS. 5 and 6—Intestinal Calcium Transport and Bone Calcium Mobilization
# (§2) Male, weanling Sprague-Dawley rats were placed on Diet 11 (0.47% Ca) diet+AEK for one week followed by Diet 11 (0.02% Ca)+AEK for 3 weeks. The rats were then switched to a diet containing 0.47% Ca for one week followed by two weeks on a diet containing 0.02% Ca. Dose administration began during the last week on 0.02% calcium diet. Four consecutive ip doses-were given approximately 24 hours apart. Twenty-four hours after the last dose, blood was collected from the severed neck and the concentration of serum calcium determined as a measure of bone calcium mobilization. The first 10 cm of the intestine was also collected for intestinal calcium transport analysis using the everted gut sac method.
# [5] = system: bone calcium mobilization; test: Bone calcium mobilization (serum calcium); type: in vivo, Sprague-Dawley rats; conditions: rats, four consecutive ip doses, FIG. 6
# Method: as §1, §2
Compound,"activity in binding to the 1α,25-hydroxyvitamin D3 rat receptor [1]",potency in promoting the differentiation of leukemia cells [2],percent of HL-60 cells induced to differentiate [2],transcriptional activity in bone cells [3],intestinal calcium transport activity [4],intestinal calcium transport activity compared with 2MD [4],ability to mobilize calcium from bone [5],bone calcium mobilization compared with 2MD [5]
"2-[(3′-methoxymethoxy)propylidene]-19-nor-1α,25-dihydroxyvitamin D3 [F-Wit]",very active,"as potent as 1α,25-dihydroxyvitamin D3 and 2MD",the same degree of differentiation,significant transcriptional activity,relatively high intestinal calcium transport activity,more active than 2M,significant ability to mobilize calcium from bone,less active in this regard than 2MD
"C=C1/C(=C\C=C2/CCC[C@]3(C)[C@@H]([C@H](C)CCCC(C)(C)O)CC[C@@H]23)C[C@@H](O)C[C@@H]1O [1α,25-dihydroxyvitamin D3, reference compound]",–,–,~90%,–,–,–,–,–
"(20R)-1α,25-dihydroxy-2-[3′-hydroxypropylidene]-19-norvitamin D3 [1AGR]",very active,"as potent as 1α,25-dihydroxyvitamin D3 and 2MD",the same degree of differentiation,significant transcriptional activity,relatively high intestinal calcium transport activity,more active than 2M,significant ability to mobilize calcium from bone,less active in this regard than 2MD
"(20S)-1α,25-dihydroxy-2-[3′-hydroxypropylidene]-19-norvitamin D3 [1AGS]",very active,"as potent as 1α,25-dihydroxyvitamin D3 and 2MD",the same degree of differentiation,significant transcriptional activity,relatively high intestinal calcium transport activity,more active than 2M,significant ability to mobilize calcium from bone,less active in this regard than 2MD
